# ChEMBL document CHEMBL3797088, “Discovery and structure activity relationship study of novel indazole amide inhibitors for extracellular signal-regulated kinase1/2 (ERK1/2)” (Bioorg Med Chem Lett, 2016)
# Calls of active or inactive are those of the source. The calls are words filed in the database; no cut-off is given here.
# Molecular target: Vascular endothelial growth factor receptor 2 (Homo sapiens, UniProt P35968)
# Assay: Inhibition of KDR (unknown origin) by Z-LYTE assay
# Conditions: not given
row,SMILES,IC50
1,CC(NC(=O)c1ccc2[nH]nc(-c3ccncc3)c2c1)c1cccc(Cl)c1 (centres undefined),> 1000 nM
2,Cc1cc(-c2n[nH]c3ccc(C(=O)NC(C)c4c(Cl)cncc4Cl)cc23)ccn1 (centres undefined),> 1000 nM

# Molecular target: Receptor tyrosine-protein kinase erbB-2 (Homo sapiens, UniProt P04626)
# Assay: Inhibition of ERBB2 (unknown origin) by Z-LYTE assay
# Conditions: not given
row,SMILES,IC50
1,CC(NC(=O)c1ccc2[nH]nc(-c3ccncc3)c2c1)c1cccc(Cl)c1 (centres undefined),> 1000 nM
2,Cc1cc(-c2n[nH]c3ccc(C(=O)NC(C)c4c(Cl)cncc4Cl)cc23)ccn1 (centres undefined),> 1000 nM

# System: not listed separately
# Assay: Apparent permeability in human Caco2 cells assessed as Fabs after 95 mins by LC-MS/MS analysis
# Assay type: ADME, cell-based
# Conditions: caco-2, 95 min
row,SMILES,Fabs
1,C[C@@H](NC(=O)c1ccc2[nH]nc(-c3ccncc3)c2c1)c1cccc(Cl)c1,100%
2,O=C(NCc1c(Cl)cncc1Cl)c1ccc2[nH]nc(-c3ccncc3)c2c1,99%
3,O=C(NC(CO)c1cccc(Cl)c1)c1ccc2[nH]nc(-c3ccncc3)c2c1 (centres undefined),69%

# Molecular target: Platelet-derived growth factor receptor beta (Homo sapiens, UniProt P09619)
# Assay: Inhibition of PDGFRbeta (unknown origin) by Z-LYTE assay
# Conditions: not given
row,SMILES,IC50
1,CC(NC(=O)c1ccc2[nH]nc(-c3ccncc3)c2c1)c1cccc(Cl)c1 (centres undefined),> 1000 nM
2,Cc1cc(-c2n[nH]c3ccc(C(=O)NC(C)c4c(Cl)cncc4Cl)cc23)ccn1 (centres undefined),> 1000 nM

# Molecular target: Mitogen-activated protein kinase; ERK1/ERK2 (Homo sapiens) (UniProt P27361+P28482)
# Sequence (P27361 whole entry, looked up): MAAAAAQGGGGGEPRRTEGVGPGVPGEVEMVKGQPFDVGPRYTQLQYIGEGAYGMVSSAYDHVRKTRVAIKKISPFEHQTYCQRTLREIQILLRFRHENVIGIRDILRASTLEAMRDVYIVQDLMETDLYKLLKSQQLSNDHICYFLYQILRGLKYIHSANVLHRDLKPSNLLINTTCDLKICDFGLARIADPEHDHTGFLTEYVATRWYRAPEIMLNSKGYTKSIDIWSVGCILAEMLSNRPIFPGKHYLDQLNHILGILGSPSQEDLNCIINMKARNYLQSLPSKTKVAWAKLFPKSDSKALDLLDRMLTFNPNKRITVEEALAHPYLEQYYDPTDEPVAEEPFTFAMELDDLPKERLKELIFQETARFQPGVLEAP
# Sequence (P28482 whole entry, looked up): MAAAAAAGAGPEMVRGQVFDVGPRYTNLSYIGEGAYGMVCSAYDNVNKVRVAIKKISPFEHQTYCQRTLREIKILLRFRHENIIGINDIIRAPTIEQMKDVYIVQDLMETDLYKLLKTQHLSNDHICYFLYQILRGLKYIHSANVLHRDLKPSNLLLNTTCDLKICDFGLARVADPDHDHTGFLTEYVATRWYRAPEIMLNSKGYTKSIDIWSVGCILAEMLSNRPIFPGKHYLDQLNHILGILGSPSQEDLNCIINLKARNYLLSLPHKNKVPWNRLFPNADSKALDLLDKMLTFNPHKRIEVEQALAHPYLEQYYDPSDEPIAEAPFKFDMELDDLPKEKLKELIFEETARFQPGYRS
# Assay: Inhibition of ERK1/ERK2 in human HT-29 cells assessed as reduction in p90RSK phosphorylation after 2 hrs by Western blot analysis
# Assay type: cell-based
# Conditions: not given
row,SMILES,inhibition
1,Cc1cc(-c2n[nH]c3ccc(C(=O)NC(C)c4c(Cl)cnc(Cl)c4Cl)cc23)ccn1 (centres undefined),Dose-dependent effect
2,C[C@@H](NC(=O)c1ccc2[nH]nc(-c3ccncc3)c2c1)c1cccc(Cl)c1,Dose-dependent effect
3,Cc1cc(-c2n[nH]c3ccc(C(=O)NC(C)c4c(Cl)cncc4Cl)cc23)ccn1 (centres undefined),Dose-dependent effect

# Molecular target: Mitogen-activated protein kinase 1 (Homo sapiens, UniProt P28482)
# Sequence (P28482 whole entry): as the sequence (P28482 whole entry, looked up) above
# Assay: Inhibition of human recombinant GST-tagged ERK2 expressed in Escherichia coli using ser/thr 3 Peptide as substrate preincubated for 1 hr measured after 1 hr by Z-LYTE assay
# Conditions: not given
row,SMILES,IC50
1,CC(C)CC(NC(=O)c1ccc2[nH]nc(-c3ccncc3)c2c1)c1cccc(Cl)c1 (centres undefined),> 2000 nM
2,CC(NC(=O)c1ccc2[nH]nc(-c3ccncc3)c2c1)c1cccc(Cl)c1 (centres undefined),53.1 nM
3,O=C(NCc1c(Cl)cncc1Cl)c1ccc2[nH]nc(-c3ccncc3)c2c1,9.3 nM
4,O=C(NC(CO)c1cccc(Cl)c1)c1ccc2[nH]nc(-c3ccncc3)c2c1 (centres undefined),24.1 nM
5,Cc1cc(-c2n[nH]c3ccc(C(=O)NC(C)c4c(Cl)cncc4Cl)cc23)ccn1 (centres undefined),16.7 nM

# Further compounds by falling IC50, results first:
row,IC50,SMILES
1,32.9 nM,O=C(NC(CO)c1cccc(Cl)c1)c1ccc2[nH]nc(-c3ccc(O)c(F)c3)c2c1 (centres undefined)
2,25.8 nM,C[C@@H](NC(=O)c1ccc2[nH]nc(-c3ccncc3)c2c1)c1cccc(Cl)c1
3,13.2 nM,Cc1cc(-c2n[nH]c3ccc(C(=O)NC(C)c4c(Cl)cnc(Cl)c4Cl)cc23)ccn1 (centres undefined)
4,9.5 nM,Cc1cc(-c2n[nH]c3ccc(C(=O)N[C@@H](C)c4c(Cl)cccc4Cl)cc23)ccn1

# Molecular target: Mitogen-activated protein kinase 3 (Homo sapiens, UniProt P27361)
# Sequence (P27361 whole entry): as the sequence (P27361 whole entry, looked up) above
# Assay: Inhibition of human recombinant GST-tagged ERK1 expressed in Escherichia coli using ser/thr 3 Peptide as substrate preincubated for 1 hr measured after 1 hr by Z-LYTE assay
# Conditions: not given
row,SMILES,IC50
1,CC(NC(=O)c1ccc2[nH]nc(-c3ccncc3)c2c1)c1cccc(Cl)c1 (centres undefined),154 nM
2,O=C(NCc1c(Cl)cncc1Cl)c1ccc2[nH]nc(-c3ccncc3)c2c1,55.5 nM
3,O=C(NC(CO)c1cccc(Cl)c1)c1ccc2[nH]nc(-c3ccncc3)c2c1 (centres undefined),72.4 nM
4,Cc1cc(-c2n[nH]c3ccc(C(=O)NC(C)c4c(Cl)cncc4Cl)cc23)ccn1 (centres undefined),29.3 nM

# The remaining lines, values ahead:
row,IC50,SMILES
1,111 nM,O=C(NC(CO)c1cccc(Cl)c1)c1ccc2[nH]nc(-c3ccc(O)c(F)c3)c2c1 (centres undefined)
2,22.2 nM,Cc1cc(-c2n[nH]c3ccc(C(=O)NC(C)c4c(Cl)cnc(Cl)c4Cl)cc23)ccn1 (centres undefined)
3,19.4 nM,Cc1cc(-c2n[nH]c3ccc(C(=O)N[C@@H](C)c4c(Cl)cccc4Cl)cc23)ccn1

# System: not listed separately
# Assay: AUC (0 to 24 hrs) in rat at 10 mg/kg, po
# Assay type: ADME, organism-based
# Design: time < 24 hr, dose 10 mg/kg, route oral
# Conditions: in vivo
row,SMILES,AUC(0-t) at 24 h
1,C[C@@H](NC(=O)c1ccc2[nH]nc(-c3ccncc3)c2c1)c1cccc(Cl)c1,56 ng·h/mL

# Molecular target: Insulin-like growth factor 1 receptor (Homo sapiens, UniProt P08069)
# Assay: Inhibition of IGF1R (unknown origin) by Z-LYTE assay
# Conditions: not given
row,SMILES,IC50
1,CC(NC(=O)c1ccc2[nH]nc(-c3ccncc3)c2c1)c1cccc(Cl)c1 (centres undefined),> 1000 nM
2,Cc1cc(-c2n[nH]c3ccc(C(=O)NC(C)c4c(Cl)cncc4Cl)cc23)ccn1 (centres undefined),> 1000 nM

# Molecular target: Dual specificity mitogen-activated protein kinase kinase; MEK1/2 (Homo sapiens) (UniProt P36507+Q02750)
# Sequence (P36507 whole entry, looked up): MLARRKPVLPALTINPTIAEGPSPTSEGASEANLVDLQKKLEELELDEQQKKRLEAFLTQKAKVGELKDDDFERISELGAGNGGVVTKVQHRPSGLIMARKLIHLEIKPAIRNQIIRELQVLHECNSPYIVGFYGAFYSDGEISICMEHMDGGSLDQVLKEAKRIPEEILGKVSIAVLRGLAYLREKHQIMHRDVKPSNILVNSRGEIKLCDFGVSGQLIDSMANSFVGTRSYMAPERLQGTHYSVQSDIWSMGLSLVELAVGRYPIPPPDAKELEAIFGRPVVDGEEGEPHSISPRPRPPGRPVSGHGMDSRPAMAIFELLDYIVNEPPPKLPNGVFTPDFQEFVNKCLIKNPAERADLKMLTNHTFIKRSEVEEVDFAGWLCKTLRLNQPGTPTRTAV
# Sequence (Q02750 whole entry, looked up): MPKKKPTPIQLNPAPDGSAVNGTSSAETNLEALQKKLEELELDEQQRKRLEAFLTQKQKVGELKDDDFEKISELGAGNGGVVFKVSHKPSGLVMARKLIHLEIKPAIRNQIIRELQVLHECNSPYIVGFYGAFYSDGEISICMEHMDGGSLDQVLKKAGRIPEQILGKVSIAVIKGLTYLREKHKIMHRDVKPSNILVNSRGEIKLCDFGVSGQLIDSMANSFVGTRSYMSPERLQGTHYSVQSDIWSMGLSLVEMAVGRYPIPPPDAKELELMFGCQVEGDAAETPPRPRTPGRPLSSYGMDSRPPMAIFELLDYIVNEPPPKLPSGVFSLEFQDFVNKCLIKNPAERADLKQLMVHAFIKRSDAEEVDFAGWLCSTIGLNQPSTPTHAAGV
# Assay: Inhibition of ERK phosphorylation in human HT-29 cells after 2 hrs by Western blot analysis
# Assay type: cell-based
# Conditions: not given
row,SMILES,inhibition
1,Cc1cc(-c2n[nH]c3ccc(C(=O)NC(C)c4c(Cl)cnc(Cl)c4Cl)cc23)ccn1 (centres undefined),inactive
2,C[C@@H](NC(=O)c1ccc2[nH]nc(-c3ccncc3)c2c1)c1cccc(Cl)c1,inactive
3,Cc1cc(-c2n[nH]c3ccc(C(=O)NC(C)c4c(Cl)cncc4Cl)cc23)ccn1 (centres undefined),inactive

# Molecular target: Hepatocyte growth factor receptor (Homo sapiens, UniProt P08581)
# Assay: Inhibition of c-MET (unknown origin) by Z-LYTE assay
# Conditions: not given
row,SMILES,IC50
1,CC(NC(=O)c1ccc2[nH]nc(-c3ccncc3)c2c1)c1cccc(Cl)c1 (centres undefined),> 1000 nM
2,Cc1cc(-c2n[nH]c3ccc(C(=O)NC(C)c4c(Cl)cncc4Cl)cc23)ccn1 (centres undefined),> 1000 nM

# System: not listed separately
# Assay: Clearance in mouse at 5 mg/kg, po or 1 mg/kg, iv
# Assay type: ADME, organism-based
# Conditions: in vivo
row,SMILES,clearance
1,Cc1cc(-c2n[nH]c3ccc(C(=O)NC(C)c4c(Cl)cncc4Cl)cc23)ccn1 (centres undefined),163 mL/min/kg

# Molecular target: Ephrin type-A receptor 2 (Homo sapiens, UniProt P29317)
# Sequence (P29317 whole entry): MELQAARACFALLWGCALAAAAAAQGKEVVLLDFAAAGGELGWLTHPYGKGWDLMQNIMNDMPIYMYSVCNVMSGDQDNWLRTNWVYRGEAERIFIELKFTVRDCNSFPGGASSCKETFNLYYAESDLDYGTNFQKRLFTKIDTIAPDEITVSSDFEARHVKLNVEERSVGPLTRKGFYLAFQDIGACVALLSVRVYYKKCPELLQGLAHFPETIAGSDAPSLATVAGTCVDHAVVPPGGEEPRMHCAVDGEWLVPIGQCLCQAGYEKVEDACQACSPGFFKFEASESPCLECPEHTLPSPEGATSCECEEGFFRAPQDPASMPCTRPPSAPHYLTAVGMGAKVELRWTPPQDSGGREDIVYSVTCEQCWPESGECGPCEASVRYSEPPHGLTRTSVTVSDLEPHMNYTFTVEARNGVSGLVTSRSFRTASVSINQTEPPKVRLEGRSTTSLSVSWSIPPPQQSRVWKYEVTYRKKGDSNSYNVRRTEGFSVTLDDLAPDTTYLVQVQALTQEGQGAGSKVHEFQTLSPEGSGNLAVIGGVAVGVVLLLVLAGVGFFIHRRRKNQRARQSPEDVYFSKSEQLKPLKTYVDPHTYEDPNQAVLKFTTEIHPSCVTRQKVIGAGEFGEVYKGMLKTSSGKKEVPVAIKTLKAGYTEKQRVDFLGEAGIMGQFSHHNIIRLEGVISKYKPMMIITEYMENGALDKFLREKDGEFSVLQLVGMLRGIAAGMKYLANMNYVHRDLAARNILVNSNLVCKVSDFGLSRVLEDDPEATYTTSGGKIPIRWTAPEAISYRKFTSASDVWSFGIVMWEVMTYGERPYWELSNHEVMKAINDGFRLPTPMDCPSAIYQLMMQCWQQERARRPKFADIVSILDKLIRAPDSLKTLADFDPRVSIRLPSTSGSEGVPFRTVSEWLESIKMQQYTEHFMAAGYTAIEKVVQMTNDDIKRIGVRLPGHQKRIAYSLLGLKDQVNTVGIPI
# Assay: Inhibition of EPHA2 (unknown origin) by Z-LYTE assay
# Conditions: not given
row,SMILES,IC50
1,CC(NC(=O)c1ccc2[nH]nc(-c3ccncc3)c2c1)c1cccc(Cl)c1 (centres undefined),> 1000 nM
2,Cc1cc(-c2n[nH]c3ccc(C(=O)NC(C)c4c(Cl)cncc4Cl)cc23)ccn1 (centres undefined),> 1000 nM

# Molecular target: Fibroblast growth factor receptor 1 (Homo sapiens, UniProt P11362)
# Sequence (P11362 whole entry): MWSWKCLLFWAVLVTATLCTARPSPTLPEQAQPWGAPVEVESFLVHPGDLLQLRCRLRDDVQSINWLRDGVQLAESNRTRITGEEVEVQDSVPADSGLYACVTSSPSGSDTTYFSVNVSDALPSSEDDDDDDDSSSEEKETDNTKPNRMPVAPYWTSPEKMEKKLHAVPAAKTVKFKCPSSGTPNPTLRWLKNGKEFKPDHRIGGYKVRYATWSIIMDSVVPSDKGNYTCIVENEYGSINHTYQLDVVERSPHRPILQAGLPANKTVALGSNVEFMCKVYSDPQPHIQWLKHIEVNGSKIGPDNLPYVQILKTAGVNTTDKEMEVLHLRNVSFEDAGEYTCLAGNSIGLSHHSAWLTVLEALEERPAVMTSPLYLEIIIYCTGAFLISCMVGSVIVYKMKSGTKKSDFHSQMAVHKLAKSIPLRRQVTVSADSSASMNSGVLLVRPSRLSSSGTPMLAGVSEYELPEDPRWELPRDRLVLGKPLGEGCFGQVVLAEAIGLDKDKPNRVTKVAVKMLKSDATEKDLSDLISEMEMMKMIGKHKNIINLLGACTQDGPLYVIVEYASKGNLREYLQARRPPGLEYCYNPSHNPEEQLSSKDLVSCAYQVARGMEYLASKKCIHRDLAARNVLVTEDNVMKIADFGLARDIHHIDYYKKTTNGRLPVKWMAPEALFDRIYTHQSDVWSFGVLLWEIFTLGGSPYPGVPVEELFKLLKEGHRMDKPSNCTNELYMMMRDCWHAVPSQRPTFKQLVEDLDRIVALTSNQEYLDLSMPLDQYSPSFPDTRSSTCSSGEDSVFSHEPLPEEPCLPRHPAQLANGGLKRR
# Assay: Inhibition of FGFR1 (unknown origin) by Z-LYTE assay
# Conditions: not given
row,SMILES,IC50
1,CC(NC(=O)c1ccc2[nH]nc(-c3ccncc3)c2c1)c1cccc(Cl)c1 (centres undefined),> 1000 nM
2,Cc1cc(-c2n[nH]c3ccc(C(=O)NC(C)c4c(Cl)cncc4Cl)cc23)ccn1 (centres undefined),> 1000 nM

# Molecular target: Proto-oncogene tyrosine-protein kinase receptor Ret (Homo sapiens, UniProt P07949)
# Sequence (P07949 whole entry): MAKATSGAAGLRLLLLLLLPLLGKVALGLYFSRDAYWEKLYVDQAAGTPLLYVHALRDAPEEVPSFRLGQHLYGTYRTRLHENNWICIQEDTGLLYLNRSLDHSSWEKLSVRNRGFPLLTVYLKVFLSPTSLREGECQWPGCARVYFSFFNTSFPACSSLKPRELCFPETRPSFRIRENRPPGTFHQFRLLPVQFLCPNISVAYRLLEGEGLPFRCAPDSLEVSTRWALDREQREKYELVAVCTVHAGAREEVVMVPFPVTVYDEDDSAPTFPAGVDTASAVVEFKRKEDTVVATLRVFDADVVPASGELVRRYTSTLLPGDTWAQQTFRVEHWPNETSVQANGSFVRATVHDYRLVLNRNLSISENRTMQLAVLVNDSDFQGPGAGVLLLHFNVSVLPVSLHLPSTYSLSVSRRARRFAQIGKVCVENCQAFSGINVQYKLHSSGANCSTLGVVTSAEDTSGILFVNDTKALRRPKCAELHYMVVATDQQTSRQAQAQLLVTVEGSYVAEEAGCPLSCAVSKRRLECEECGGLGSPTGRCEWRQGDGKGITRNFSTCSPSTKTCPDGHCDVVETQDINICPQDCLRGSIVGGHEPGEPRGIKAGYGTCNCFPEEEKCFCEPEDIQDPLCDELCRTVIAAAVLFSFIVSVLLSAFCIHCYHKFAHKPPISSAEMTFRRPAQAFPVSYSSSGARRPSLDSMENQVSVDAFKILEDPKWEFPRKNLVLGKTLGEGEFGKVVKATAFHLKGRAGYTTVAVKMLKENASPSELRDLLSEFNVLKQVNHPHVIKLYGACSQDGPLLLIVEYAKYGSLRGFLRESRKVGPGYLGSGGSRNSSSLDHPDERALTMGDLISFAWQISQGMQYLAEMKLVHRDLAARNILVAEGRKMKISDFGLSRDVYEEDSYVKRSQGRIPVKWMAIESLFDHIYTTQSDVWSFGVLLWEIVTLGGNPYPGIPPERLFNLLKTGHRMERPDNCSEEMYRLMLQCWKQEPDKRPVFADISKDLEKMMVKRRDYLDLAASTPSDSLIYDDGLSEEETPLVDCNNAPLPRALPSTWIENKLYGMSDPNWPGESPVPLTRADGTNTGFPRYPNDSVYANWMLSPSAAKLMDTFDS
# Assay: Inhibition of RET (unknown origin) by Z-LYTE assay
# Conditions: not given
row,SMILES,IC50
1,CC(NC(=O)c1ccc2[nH]nc(-c3ccncc3)c2c1)c1cccc(Cl)c1 (centres undefined),> 1000 nM
2,Cc1cc(-c2n[nH]c3ccc(C(=O)NC(C)c4c(Cl)cncc4Cl)cc23)ccn1 (centres undefined),> 1000 nM

# Molecular target: ALK tyrosine kinase receptor (Homo sapiens, UniProt Q9UM73)
# Assay: Inhibition of ALK (unknown origin) by Z-LYTE assay
# Conditions: not given
row,SMILES,IC50
1,CC(NC(=O)c1ccc2[nH]nc(-c3ccncc3)c2c1)c1cccc(Cl)c1 (centres undefined),> 1000 nM
2,Cc1cc(-c2n[nH]c3ccc(C(=O)NC(C)c4c(Cl)cncc4Cl)cc23)ccn1 (centres undefined),> 1000 nM

# Molecular target: Epidermal growth factor receptor (Homo sapiens, UniProt P00533)
# Assay: Inhibition of EGFR (unknown origin) by Z-LYTE assay
# Conditions: not given
row,SMILES,IC50
1,CC(NC(=O)c1ccc2[nH]nc(-c3ccncc3)c2c1)c1cccc(Cl)c1 (centres undefined),> 1000 nM
2,Cc1cc(-c2n[nH]c3ccc(C(=O)NC(C)c4c(Cl)cncc4Cl)cc23)ccn1 (centres undefined),> 1000 nM

# Molecular target: Proto-oncogene tyrosine-protein kinase Src (Homo sapiens, UniProt P12931)
# Assay: Inhibition of c-Src (unknown origin) by Z-LYTE assay
# Conditions: not given
row,SMILES,IC50
1,CC(NC(=O)c1ccc2[nH]nc(-c3ccncc3)c2c1)c1cccc(Cl)c1 (centres undefined),> 1000 nM
2,Cc1cc(-c2n[nH]c3ccc(C(=O)NC(C)c4c(Cl)cncc4Cl)cc23)ccn1 (centres undefined),> 1000 nM

# System: HT-29
# Assay: Antiproliferative activity against human HT-29 cells harboring B-RAF V600E mutant after 72 hrs by SRB assay
# Assay type: functional, cell-based
# Conditions: HT-29, 72 h
row,SMILES,IC50
1,CC(C)CC(NC(=O)c1ccc2[nH]nc(-c3ccncc3)c2c1)c1cccc(Cl)c1 (centres undefined),7100 nM
2,CC(NC(=O)c1ccc2[nH]nc(-c3ccncc3)c2c1)c1cccc(Cl)c1 (centres undefined),900 nM
3,O=C(NCc1c(Cl)cncc1Cl)c1ccc2[nH]nc(-c3ccncc3)c2c1,6100 nM
4,O=C(NC(CO)c1cccc(Cl)c1)c1ccc2[nH]nc(-c3ccncc3)c2c1 (centres undefined),5500 nM
5,Cc1cc(-c2n[nH]c3ccc(C(=O)NC(C)c4c(Cl)cncc4Cl)cc23)ccn1 (centres undefined),350 nM

# The next lines start with the values.
row,IC50,SMILES
1,2500 nM,O=C(NC(CO)c1cccc(Cl)c1)c1ccc2[nH]nc(-c3ccc(O)c(F)c3)c2c1 (centres undefined)
2,900 nM,C[C@@H](NC(=O)c1ccc2[nH]nc(-c3ccncc3)c2c1)c1cccc(Cl)c1
3,713 nM,Cc1cc(-c2n[nH]c3ccc(C(=O)NC(C)c4c(Cl)cnc(Cl)c4Cl)cc23)ccn1 (centres undefined)
4,480 nM,Cc1cc(-c2n[nH]c3ccc(C(=O)N[C@@H](C)c4c(Cl)cccc4Cl)cc23)ccn1

# Molecular target: Tyrosine-protein kinase ABL1 (Homo sapiens, UniProt P00519)
# Assay: Inhibition of ABL (unknown origin) by Z-LYTE assay
# Conditions: not given
row,SMILES,IC50
1,CC(NC(=O)c1ccc2[nH]nc(-c3ccncc3)c2c1)c1cccc(Cl)c1 (centres undefined),> 1000 nM
2,Cc1cc(-c2n[nH]c3ccc(C(=O)NC(C)c4c(Cl)cncc4Cl)cc23)ccn1 (centres undefined),> 1000 nM

# Molecular target: Vascular endothelial growth factor receptor 1 (Homo sapiens, UniProt P17948)
# Assay: Inhibition of FLT1 (unknown origin) by Z-LYTE assay
# Conditions: not given
row,SMILES,IC50
1,CC(NC(=O)c1ccc2[nH]nc(-c3ccncc3)c2c1)c1cccc(Cl)c1 (centres undefined),> 1000 nM
2,Cc1cc(-c2n[nH]c3ccc(C(=O)NC(C)c4c(Cl)cncc4Cl)cc23)ccn1 (centres undefined),> 1000 nM

# System: not listed separately
# Assay: AUC (0 to 24 hrs) in mouse at 5 mg/kg, po
# Assay type: ADME, organism-based
# Design: dose 5 mg/kg, time < 24 hr, route oral
# Conditions: in vivo
row,SMILES,AUC(0-t) at 24 h
1,Cc1cc(-c2n[nH]c3ccc(C(=O)NC(C)c4c(Cl)cncc4Cl)cc23)ccn1 (centres undefined),61 ng·h/mL

# System: not listed separately
# Assay: Oral bioavailability in mouse at 5 mg/kg
# Assay type: ADME, organism-based
# Conditions: in vivo
row,SMILES,bioavailability
1,Cc1cc(-c2n[nH]c3ccc(C(=O)NC(C)c4c(Cl)cncc4Cl)cc23)ccn1 (centres undefined),12%
